Laboratory results published in patent US6933315B2, “Derivatives of isoindigo, indigo and indirubin and methods of treating cancer” (priority 2001, dated 2005).
Where two headings read alike, the source gives them in different places.

Legend:
[1] = system: LNCaP; experiment: Growth inhibition by MTT, LNCaP prostate cancer cells; assay type: cell-based, Human; settings: Homo sapiens, LNCaP
Method: Growth inhibitory effects of NATURA and other agents on human cancer cells were determined by standard MTT (3-(4,5-dimethylthiazol-2-yl)-2,5-diphenyltetrazolium bromide Test) as described previously. […] The cells in the plates were then exposed to series of dilution of indicated agent. After 72 h of incubation, 100 μl of the medium was removed from each of the wells and 50 μl of a 1 mg/ml solution of 3-(4,5-dimethylthiazol-2-yl)-2,5-diphenyltetrazolium bromide (MTT) was added to each well and the cells were incubated for additional 4 h. 200 μl of solution of 0.04 N HCl-isopropanol was added to each well to dissolve the black fromazan participates, and absorbance at 540 nm was measured on a 96-Well.
The cells in the plates were then exposed to series of dilution of indicated agent. After 72 h of incubation, 100 μl of the medium was removed from each of the wells and 50 μl of a 1 mg/ml solution of 3-(4,5-dimethylthiazol-2-yl)-2,5-diphenyltetrazolium bromide (MTT) was added to each well and the cells were incubated for additional 4 h. 200 μl of solution of 0.04 N HCl-isopropanol was added to each well to dissolve the black fromazan participates, and absorbance at 540 nm was measured on a 96-Well Microplate Reader. Each experiment was repeated at least three times.

[2] = system: cdk2; experiment: cdk2 activity immuno-precipitated from treated LNCaP cells; assay type: cell-based, Human; settings: 24 hours incubation with LNCaP cells
Method: (§1) Assay for cyclin dependent kinase activity: HUVEC and LNCaP cells were cultured in EMB (endothelial cell basal medium) and RPMI 1640 containing 10% FBS, respectively. The cells grown exponentially were exposed to indicated concentrations of meisoindigo or NATURA for 24 hr. The cells were harvested, washed, and total proteins extracted as described previously. One hundred μg of the proteins were immuno-precipitated using antibodies against cdk2, cdk4/6, PKC, ERK2 or cyclin D1 overnight at 4° C. in the presence of a cocktail of protease inhibitors. The immuno-precipitates were washed 4 times with protein extraction buffer and once with kinase assay buffer, and reacted with 75 μg/ml histone H1 in the presence of [γ-^32P]-ATP (2.5 μCi/10 μM). The phosphorylated histone H1 (represent cdk activity) was measured by scintillation counting or by SDS-polyacrylaimde gel electrophoresis. The direct inhibitory effects of Meisoindigo and NATURA were also measured by reaction of immuno-purified specific enzyme from untreated cells directly with the Meisoindigo or NATURA.
LNCaP cells grown exponentially were exposed to different concentrations of NATURA for 24 hrs. […] The upper panels (A & B) are imagines of the films from SDS-PAGE, and lower panels represent the density measured by an Imagine Densitometer from the same films (expressed as percent of control).

[3] = molecular target: T1, immuno-purified cdk2 from LNCaP cells (Homo sapiens, UniProt P24941); experiment: Direct inhibition of immuno-purified cdk2 activity in vitro; assay type: biochemical
T1 construct: Two hundred mg of total protein extracts were immuno-precipitated with cdk2 antibody overnight at 4° C
Method: as §1
When immuno-purified cdk2 from LNCaP cells was reacted with histone H1 in the presence of different concentrations of NATURA-β and γ-[^32P]-ATP (2.5 μCi/[…]), the enzyme activity was decreased in a concentration-dependent manner.
Two hundred mg of total protein extracts were immuno-precipitated with cdk2 antibody overnight at 4° C. After 4 washes with PBSTDS, and once with kinase assay buffer, the immuno-purified enzyme was then reacted for 10 min with 10 mg of histone H1 in the presence of different concentrations of NATURA or 50 mM of genistein (as a positive control) and γ-[^32P]-ATP (2.5 mCi/10 mM). The phosphorylated histone H1 (reflecting cdk2 activity) was detected either by SDS-PAGE (upper panel), or radioactive scintillation counting (lower panel, after eliminating free γ-[^32P]-ATP).

[4] = Solubility description; assay type: physicochemical
[5] = system: protein kinase C (PKC); experiment: PKC activity from treated LNCaP cells; assay type: cell-based, Human; settings: as high as 15 μM, 24 hrs
Method: as §1, with “The immuno-precipitates were washed 4 times with protein extraction buffer and once with kinase assay buffer, and reacted with 75 μg/ml histone H1 in the presence of [γ-^32P]-ATP (2.5 μCi/10 μM).” left out, “NATURA. […]” for “NATURA.”
LNCaP cells at exponential growth phase were exposed to different concentrations of NATURA (panel A & B) for 24 hrs, or to PD98059 (panel C) for 15 min. […] Upper panels are the imagines of x-ray films from SDS-PAGE, and lower panels represent the densities of each band from the films determined by an Imagine Densitometer from the same films (expressed as the percent of control).

[6] = Chronic toxicity in dogs; assay type: in vivo
Method: On the basis of above initial tests, the sub-acute toxicities of Meisoindigo were further examined in dogs. Twelve dogs were randomly divided into 3 groups each having equal numbers of males and females, and orally given Meisoindigo at doses of 0, 5, and 10 mg/kg daily, respectively, for 6 months. […] All parameters tested, in all animals, including controls fluctuated within normal ranges.
Twenty-four hours after the termination of Meisoindigo, half of the animal of each group were sacrificed, and dissected for pathological examination.

[7] = system: TA97, TA98, TA100 and TA102; experiment: Reverse mutation, Ames test; assay type: cell-based, salmonella typhimurium; settings: +S9 and −S9, Meisoindigo 2, 20, 50, 100 and 200 μg/dish
Method: Meisoindigo at concentrations of 2, 20, 50, 100 and 200 μg/dish (10 cm), metabolically activated (+S9) and inactivated (−S9), were tested in strains of TA97, TA98, TA100 and TA102 (amino acid deficit salmonella typhimurium) respectively. Daunomycin, 2-aminofluorene (2AF), methylmethanesulfonate (MMS), 2,7-2AF, and 2-hydroxy-anthraquinone were used as positive controls.

[8] = system: Lewis Lung Cancer; experiment: Anticancer activity in Lewis lung carcinoma animal model; assay type: in vivo, C57 mice; settings: mice, oral, Indirubin 100 × 9, Meisoindigo 106 × 9 mg/kgxd
Method: Briefly, C57 mice, body weight between 18 to 22 grams, and rat, body weight between 50 to 55 grams, were randomly divided into several groups, ten of each, respectively. Approximately 2×10^6 of Lewis cancer cells or Walker sarcoma cells were transplanted into mice or rat. […] The animals in the control group were given 0.1 ml saline (drug vehicle, negative control) for the same periods of time as treated group. The animals at end of the treatment were sacrificed and tumors were removed and weighed.

[9] = MTT, 72 h exposure (Table 3), read-out: IC50 LNCaP
[10] = oral, 5 and 10 mg/kg daily for 6 months

Structure (SMILES)	IC50 [1, 9] [nM]	IC50 ([1]; Table 10, read-out: IC50 in LNCaP cells (NATURA and its derivatives)) [nM]	inhibition of cdk2 enzyme activity ([2]; 5.0 μM)	inhibition of cdk2 enzyme activity ([2]; 15 μM) [%]	inhibition at 10 µM ([3]; 10 μM compound, ATP concentration as high as 100 μM, read-out: inhibitory effect on immuno-purified cdk2, ATP competing assay) [%]	IC50 ([3]; immuno-purified cdk2, histone H1, γ-[32P]-ATP 2.5 μCi/20 μM) [nM]	solubility in dimethyl sulfoxide (DMSO) [4]	solubility in ethanol, acetone, chloroform [4]	solubility in water [4]	effect on PKC activity [5]	pathological examination of heart, liver, lung, kidney, stomach, gastro intestine, testis, ovary, lymph node ([6]; 24 hours after termination of 6 months dosing)	clinical observations [6, 10]	hemogram, functions of liver (SGPT), kidney (BUN) and heart (ECG) vs control [6, 10]	reverse mutations (Ames test) [7]	Inhibition (%) [8] [%]	Tumor Size X ± SD [8]
CC(=O)OC1COC(N2C(=O)/C(=C3/C(=O)Nc4ccccc43)c3ccccc32)C(OC(C)=O)C1OC(C)=O [NATURA, 1-(β-D-O-Triacetyl-xylopyranosyl)-isoindigo]	1720 ± 270	1720	approximately 46%	~92	> 50	1600 ± 200	soluble	slightly dissolves	rarely dissolves	No inhibitory effect						
CN1C(=O)/C(=C2/C(=O)Nc3ccccc32)c2ccccc21 [Meisoindigo]	2340 ± 330										No abnormalities	minor gastro-intestinal irritations	No significant differences	No induction of reverse mutations	48.6 ± 4.1	1.80 ± 0.15
